Measurements published in PubChem BioAssay AID1963985 (Molecular Pharmacology Branch, DTP, NCI, 2024).
pIC50: −log10 of the molar value.

Tested on: 252836-082-R-J2-PDC tumor spheroids, viability
Test: Anticancer human tumor 252836-082-R-J2-PDC patient-derived head and neck squamous cell carcinoma cell line growth inhibition [PI3K]
Conditions: spheroids with HUVEC and MSC; for viability, T/C: stronger effect = lower value
Summary of the method: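 We assembled tumor spheroids that included a stromal compartment of HUVEC and MSCs, then exposed them to targeted agents alone and together with PI3K pathway inhibitors. Concentration series descended by half-log from clinically achievable Cmax levels. Viability served as the endpoint.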
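Also: spheroids exposed to agents for seven days before readout.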
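For viability, T/C in this document: percent of vehicle DMSO control viability so 100% = untreated growth.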

## CC1(C)CCC(Nc2ncc(C(F)(F)F)c(-c3c[nH]c4c(P(C)(C)=O)c(C#N)ccc34)n2)CN1 (centres undefined) + CC(Nc1ccc2c(c1)OCCn1cc(N3C(=O)OCC3C(F)F)nc1-2)C(N)=O
Curve of first compound, second compound 0.00316 µM
  pIC50: > 7.50
Curve of first compound, second compound 0.01 µM
  pIC50: > 7.50
Curve of first compound, second compound 0.0316 µM
  pIC50: > 7.50
Curve of first compound, second compound 0.1 µM
  pIC50: > 7.50
Curve of first compound, second compound 0.316 µM
  pIC50: > 7.50
Curve of first compound, second compound 1 µM
  pIC50: > 7.50
Second compound 0.00316 µM, first compound 0.0316 µM
  viability, T/C: 27.2%
Second compound 0.00316 µM, first compound 0.1 µM
  viability, T/C: 24.2%
Second compound 0.00316 µM, first compound 0.316 µM
  viability, T/C: 29.6%
Second compound 0.00316 µM, first compound 1 µM
  viability, T/C: 24.5%
Second compound 0.00316 µM, first compound 3.16 µM
  viability, T/C: 26.2%
Second compound 0.00316 µM, first compound 10 µM
  viability, T/C: 5.32%
Second compound 0.01 µM, first compound 0.0316 µM
  viability, T/C: 27.5%
Second compound 0.01 µM, first compound 0.1 µM
  viability, T/C: 27.6%
Second compound 0.01 µM, first compound 0.316 µM
  viability, T/C: 25.7%
Second compound 0.01 µM, first compound 1 µM
  viability, T/C: 25.6%
Second compound 0.01 µM, first compound 3.16 µM
  viability, T/C: 23.5%
Second compound 0.01 µM, first compound 10 µM
  viability, T/C: 4.5%
Second compound 0.0316 µM, first compound 0.0316 µM
  viability, T/C: 26.8%
Second compound 0.0316 µM, first compound 0.1 µM
  viability, T/C: 29.1%
Second compound 0.0316 µM, first compound 0.316 µM
  viability, T/C: 22.2%
Second compound 0.0316 µM, first compound 1 µM
  viability, T/C: 23.8%
Second compound 0.0316 µM, first compound 3.16 µM
  viability, T/C: 27.3%
Second compound 0.0316 µM, first compound 10 µM
  viability, T/C: 4.59%
Second compound 0.1 µM, first compound 0.0316 µM
  viability, T/C: 24.1%
Second compound 0.1 µM, first compound 0.1 µM
  viability, T/C: 20.6%
Second compound 0.1 µM, first compound 0.316 µM
  viability, T/C: 22.1%
Second compound 0.1 µM, first compound 1 µM
  viability, T/C: 24.8%
Second compound 0.1 µM, first compound 3.16 µM
  viability, T/C: 22.9%
Second compound 0.1 µM, first compound 10 µM
  viability, T/C: 3.21%
Second compound 0.316 µM, first compound 0.0316 µM
  viability, T/C: 20.6%
Second compound 0.316 µM, first compound 0.1 µM
  viability, T/C: 21%
Second compound 0.316 µM, first compound 0.316 µM
  viability, T/C: 21.1%
Second compound 0.316 µM, first compound 1 µM
  viability, T/C: 19.5%
Second compound 0.316 µM, first compound 3.16 µM
  viability, T/C: 20.2%
Second compound 0.316 µM, first compound 10 µM
  viability, T/C: 3.5%
Second compound 1 µM, first compound 0.0316 µM
  viability, T/C: 18.4%
Second compound 1 µM, first compound 0.1 µM
  viability, T/C: 19.3%
Second compound 1 µM, first compound 0.316 µM
  viability, T/C: 16.6%
Second compound 1 µM, first compound 1 µM
  viability, T/C: 19.6%
Second compound 1 µM, first compound 3.16 µM
  viability, T/C: 18.2%
Second compound 1 µM, first compound 10 µM
  viability, T/C: 2.31%

## C[C@@H](NC(=O)c1ncnc(N)c1Cl)c1ncc(C(=O)Nc2cc(C(F)(F)F)c(Cl)cn2)s1
Compound 0.0316 µM
  viability, T/C: 98.2% [middle of 4 runs]
Compound 0.1 µM
  viability, T/C: 93% [middle of 4 runs]
Compound 0.316 µM
  viability, T/C: 104% [middle of 4 runs]
Compound 1 µM
  viability, T/C: 109% [middle of 4 runs]
Compound 3.16 µM
  viability, T/C: 96.5% [middle of 4 runs]
Compound 10 µM
  viability, T/C: 87.4% [middle of 4 runs]
Curve of compound
  pIC50: < 5.00
